Laboratory results reported in US20230147962A1, “FIBROBLAST ACTIVATION PROTEIN LIGANDS FOR TARGETED DELIVERY APPLICATIONS” (PHILOCHEM AG, priority 2020, published 2023).
*1 amine or outer side, *2 acyl side, *3 side chain or, on linkers, in order; H or OH if unused. Where a SMILES comes first, the peptide text is derived from it. The star is where a group is joined. Fluorescein(5-Mal) = O=C1OC2(c3ccc(O)cc3Oc3cc(O)ccc32)c2ccc(N3C(=O)CC(*)C3=O)cc21; X1 = N#C[C@@H]1CC(F)(F)CN1C(=O)CNC(=O)c1ccnc2c(N*)cccc12; Suc = O=C(CCC(=O)[*:2])[*:1]

Legend:
HT-1080.hFAP = experiment: FACS analysis on HT-1080 wild type and HT-1080.hFAP; format: cell-based; conditions: 10 nM
Procedure: (§1) SK-RC-52.hFAP, SK-RC-52.wt, HT-1080.wt and HT-1080.hFAP were detached from culture plates using Accutase, counted and suspended to a final concentration of 1.5×10^6 cells/mL in a 1% v/v solution of FCS in PBS pH 7.4. […] Cells were washed once with 200 μL 1% v/v solution of FCS in PBS pH 7.4 (200 μL), spun down, resuspended in a 1% v/v solution of FCS in PBS pH 7.4 (300 μL) and analyzed on a CytoFLEX cytometer (Beckman Coulter). The raw data were processed with the FlowJo 10.4 software.

SK-RC-52.hFAP [1] = experiment: FACS analysis on SK-RC-52 wild type and SK-RC-52.hFAP; format: cell-based; conditions: 10 nM
Procedure: as §1

[2] = tested on: SK-RC-52.hFAP renal cell carcinoma xenografts; experiment: Ex vivo targeting experiment, SK-RC-52.hFAP xenografts; format: in vivo, BALB/C nu/nu mice; conditions: 40 nmol intravenous, ex vivo organ images 1 h
Procedure: SK-RC-52.hFAP cells were grown to 80% confluence and detached with Trypsin-EDTA 0.05%. Cells were re-suspended in HBSS medium to a final concentration of 5×10^7 cells/mL.
Mice bearing subcutaneous SK-RC-52.hFAP tumour was injected intravenously with conjugate 15 (40 nmol in sterile PBS, pH 7.4). Animals were sacrificed by CO2 asphyxiation 1h after the intravenous injection and the organs and the tumour were excised, snap-frozen in OCT medium and stored at −80° C. Cryostat sections ([…]) were cut and nuclei were stained with Fluorescence Mounting Medium (Dako Omnis, Agilent). Images were obtained using an Axioskop2 mot plus microscope (Zeiss) and analyzed by ImageJ 1.53 software.

SK-RC-52.hFAP [3] = experiment: Confocal microscopy on SK-RC-52.hFAP; format: cell-based; conditions: t=0 and 1 h
Procedure: (§2) SK-RC-52.hFAP and SK-RC-52 cells were seeded into 4-well cover slip chamber plates at a density of 10^4 cells per well in RPMI medium (1 mL) supplemented with 10% FCS, AA and HEPES (10 mM) and allowed to grow for 24 hours under standard culture conditions. Hoechst 33342 nuclear dye was used to stain nuclear structures.
(§3) The culture medium was replaced with fresh medium containing conjugate 15 (100 nM). Randomly selected colonies imaged on a SP8 confocal microscope equipped with an AOBS device (Leica Microsystems).

SK-RC-52 Wild type = experiment: Confocal microscopy on SK-RC-52 wild type; format: cell-based; conditions: negative control cells
Procedure: as §2, §3

mFAP = target: T1, mFAP (Mus musculus, UniProt P97321); experiment: Chromatographic co-elution (PD-10) of ligand-protein complexes, mFAP; format: binding, murine; conditions: PD-10 column, mFAP 5 μM
T1 sequence (P97321 1-761): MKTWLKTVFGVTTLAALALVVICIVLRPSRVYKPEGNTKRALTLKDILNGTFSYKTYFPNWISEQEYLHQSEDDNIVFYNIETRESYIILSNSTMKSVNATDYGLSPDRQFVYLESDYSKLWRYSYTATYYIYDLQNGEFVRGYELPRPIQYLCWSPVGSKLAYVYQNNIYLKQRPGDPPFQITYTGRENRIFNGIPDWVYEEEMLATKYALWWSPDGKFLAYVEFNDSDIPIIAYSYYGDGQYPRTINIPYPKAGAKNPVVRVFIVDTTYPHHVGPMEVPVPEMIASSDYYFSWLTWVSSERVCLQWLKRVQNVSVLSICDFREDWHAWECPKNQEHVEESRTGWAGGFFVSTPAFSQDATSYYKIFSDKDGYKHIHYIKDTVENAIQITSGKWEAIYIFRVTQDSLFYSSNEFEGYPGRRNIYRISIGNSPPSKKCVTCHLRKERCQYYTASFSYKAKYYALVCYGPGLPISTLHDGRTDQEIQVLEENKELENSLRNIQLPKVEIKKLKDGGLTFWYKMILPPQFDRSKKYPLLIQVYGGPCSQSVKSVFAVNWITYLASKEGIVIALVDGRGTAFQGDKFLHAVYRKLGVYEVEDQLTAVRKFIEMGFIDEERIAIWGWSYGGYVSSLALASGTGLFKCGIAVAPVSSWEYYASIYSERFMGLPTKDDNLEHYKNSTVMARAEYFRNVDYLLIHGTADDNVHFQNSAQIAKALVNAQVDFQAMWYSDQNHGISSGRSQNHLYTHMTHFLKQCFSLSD
Procedure: A PD-10 column was pre-equilibrated with assay buffer (50 mM Tris, 100 mM NaCl, 1 mM EDTA, pH=7.4) prior to the loading of the complex. A mixture of different proteins (hFAP=2 μM, mFAP=5 μM) and conjugate 15 (100 nM) were incubated and loaded on the column. The mixture was flushed using the assay buffer. The flow through was collected in 96-well plates and the fluorescence intensity was measured immediately on a TECAN microtiter plate reader, monitoring the fluorescence at an excitation wavelength of 485 nm and an emission wavelength of 535 nm. The concentration of the proteins was estimated by measuring the absorbance at 280 nm using a Nanodrop 2000/2000c spectrophotometer.

## N#C[C@@H]1CC(F)(F)CN1C(=O)CNC(=O)c1ccnc2c(NC(=O)CCC(=O)N[C@@H](CC(=O)O)C(=O)N[C@@H](CCCCN)C(=O)N[C@@H](CC(=O)O)C(=O)N[C@@H](CSC3CC(=O)N(c4ccc5c(c4)C(=O)OC54c5ccc(O)cc5Oc5cc(O)ccc54)C3=O)C(=O)O)cccc12 (stereo partly drawn) [Conjugate 15, (2R,5S,8S,11S)-8-(4-aminobutyl)-5,11-bis(carboxymethyl)-16-((4-((2-((S)-2-cyano-4,4-difluoropyrrolidin-1-yl)-2-oxoethyl)carbamoyl)quinolin-8-yl)amino)-2-(((1-(3′,6′-dihydroxy-3-oxo-3H-spiro[isobenzofuran-1,9′-xanthen]-5-yl)-2,5-dioxopyrrolidin-3-yl)thio)methyl)-4,7,10,13,16-pentaoxo-3,6,9,12-tetraazahexadecanoic acid] ({X1-Suc}-DKDC(Fluorescein(5-Mal))-OH)
HT-1080.hFAP
  cellular binding, HT-1080 Wild type vs HT-1080.hFAP: FAP-specific cellular binding
SK-RC-52.hFAP [1]
  cellular binding, SK-RC-52 Wild type vs SK-RC-52.hFAP: FAP-specific cellular binding
[2]
  targeting performance in SK-RC-52.hFAP xenografts: rapidly and homogeneously localizes at the tumour site in vivo 1 hour after the intravenous injection, with a high tumour-to-organs selectivity
SK-RC-52.hFAP [3]
  accumulation on SK-RC-52.hFAP cells: accumulation of conjugate 15 on the cell membrane
SK-RC-52 Wild type
  accumulation on SK-RC-52 Wild type cells: no accumulation on the cell membrane
mFAP
  complex formation with mFAP in PD-10 co-elution: stable complex is formed
